Patent US9113629B2, “4-amino-6-(4-substituted-phenyl)-picolinates and 6-amino-2-(4-substituted-phenyl)-pyrimidine-4-carboxylates and their use as herbicides” (DOW AGROSCIENCES LLC, priority 2013, dated 2015)
Read-outs that look alike come from different tables or passages of the source.

How the values were obtained:
[1] = tested on: Key Grass and Sedge Weeds as well as Grass Crops; assay: Post-emergent Test II herbicidal activity (Table 6); assay type: in vivo; details: for pest or weed control at 70 g/ha / pest or weed control at 140 g/ha: post-emergence, 336 h; for pest or weed control at 70 g/ha: 70 g ai/ha; for pest or weed control at 140 g/ha: 140 g ai/ha; for Visual Growth Reduction (%) 14 Days After Application, SORVU: SORVU: sorghum (Sorghum vulgare); for Visual Growth Reduction (%) 14 Days After Application, TRZSS: TRZSS (wheat)
Procedure, shortened: (§1)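 Percent injury, 0 (none) to 100 (complete kill), was judged visually 14 d after spraying young plants at the first or second true leaf stage with compound in an acetone/DMSO aqueous carrier at 187 L/ha. Plants were kept in a greenhouse at 23–29 °C by day.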

[2] = tested on: Key Broadleaf Weed and Crop Species; assay: Post-emergent Test II herbicidal activity (Table 5); assay type: in vivo; details: for pest or weed control at 70 g/ha / pest or weed control at 140 g/ha: post-emergence, 336 h, 14 days after application; for pest or weed control at 70 g/ha: application rate 70 g ai/ha; for pest or weed control at 140 g/ha: application rate 140 g ai/ha; for Visual Growth Reduction (%) 14 Days After Application, ABUTH / Visual Growth Reduction (%) 14 Days After Application, AMARE / Visual Growth Reduction (%) 14 Days After Application, BRSNN / Visual Growth Reduction (%) 14 Days After Application, CHEAL / Visual Growth Reduction (%) 14 Days After Application, EPHHL / Visual Growth Reduction (%) 14 Days After Application, HELAN / Visual Growth Reduction (%) 14 Days After Application, VIOTR: post-emergent
Procedure, shortened: as §1

[3] = CYPES: yellow nutsedge (Cyperus esculentus), read-out: Visual Growth Reduction (%) 14 Days After Application, CYPES
[4] = DIGSA: crabgrass (Digitaria sanguinalis), read-out: Visual Growth Reduction (%) 14 Days After Application, DIGSA
[5] = ECHCG: barnyardgrass (Echinochloa crus-galli), read-out: Visual Growth Reduction (%) 14 Days After Application, ECHCG
[6] = ORYSA: rice (Oryza sativa), crop, read-out: Visual Growth Reduction (%) 14 Days After Application, ORYSA
[7] = SETFA: giant foxtail (Setaria faberi), read-out: Visual Growth Reduction (%) 14 Days After Application, SETFA
[8] = SORVU: grain sorghum (Sorghum vulgare), read-out: Visual Growth Reduction (%) 14 Days After Application, SORVU
[9] = TRZSS (wheat, Triticum aestivum), crop, read-out: Visual Growth Reduction (%) 14 Days After Application, TRZSS
[10] = ZEAMX: maize, corn (Zea mays), crop, read-out: Visual Growth Reduction (%) 14 Days After Application, ZEAMX
[11] = ABUTH: velvetleaf (Abutilon theophrasti), read-out: Visual Growth Reduction (%) 14 Days After Application, ABUTH
[12] = AMARE: redroot pigweed (Amaranthus retroflexus), read-out: Visual Growth Reduction (%) 14 Days After Application, AMARE
[13] = BRSNN: oilseed-rape, canola (Brassica napus), read-out: Visual Growth Reduction (%) 14 Days After Application, BRSNN
[14] = CHEAL: lambsquarters (Chenopodium album), read-out: Visual Growth Reduction (%) 14 Days After Application, CHEAL
[15] = EPHHL: wild poinsettia (Euphorbia heterophylla), read-out: Visual Growth Reduction (%) 14 Days After Application, EPHHL
[16] = HELAN: sunflower (Helianthus annuus), read-out: Visual Growth Reduction (%) 14 Days After Application, HELAN
[17] = VIOTR: wild pansy (Viola tricolor), read-out: Visual Growth Reduction (%) 14 Days After Application, VIOTR

Compound: Nc1c(F)c(-c2ccc(I)cc2)nc(C(=O)O)c1Cl [Compound 45, 4-amino-3-chloro-5-fluoro-6-(4-iodophenyl)picolinic acid]
- pest or weed control at 70 g/ha [1, 3]: 85 to 94%
- pest or weed control at 140 g/ha [1, 3]: 95 to 100%
- pest or weed control at 70 g/ha [1, 4]: 85 to 94%
- pest or weed control at 140 g/ha [1, 4]: 85 to 94%
- pest or weed control at 70 g/ha [1, 5]: 95 to 100%
- pest or weed control at 140 g/ha [1, 5]: 95 to 100%
- pest or weed control at 70 g/ha [1, 6]: 45 to 59%
- pest or weed control at 140 g/ha [1, 6]: 60 to 74%
- pest or weed control at 70 g/ha [1, 7]: 85 to 94%
- pest or weed control at 140 g/ha [1, 7]: 85 to 94%
- pest or weed control at 70 g/ha [1, 8]: 60 to 74%
- pest or weed control at 140 g/ha [1, 8]: 95 to 100%
- pest or weed control at 70 g/ha [1, 9]: 60 to 74%
- pest or weed control at 140 g/ha [1, 9]: 75 to 84%
- pest or weed control at 70 g/ha [1, 10]: 85 to 94%
- pest or weed control at 140 g/ha [1, 10]: 95 to 100%
- pest or weed control at 70 g/ha [2, 11]: 95 to 100%
- pest or weed control at 140 g/ha [2, 11]: 95 to 100%
- pest or weed control at 70 g/ha [2, 12]: 95 to 100%
- pest or weed control at 140 g/ha [2, 12]: 95 to 100%
- pest or weed control at 70 g/ha [2, 13]: 95 to 100%
- pest or weed control at 140 g/ha [2, 13]: 95 to 100%
- pest or weed control at 70 g/ha [2, 14]: 95 to 100%
- pest or weed control at 140 g/ha [2, 14]: 95 to 100%
- pest or weed control at 70 g/ha [2, 15]: 95 to 100%
- pest or weed control at 140 g/ha [2, 15]: 95 to 100%
- pest or weed control at 70 g/ha [2, 16]: 95 to 100%
- pest or weed control at 140 g/ha [2, 16]: 95 to 100%
- pest or weed control at 70 g/ha [2, 17]: 85 to 94%
- pest or weed control at 140 g/ha [2, 17]: 95 to 100%

Compound: COC(=O)c1nc(-c2ccc(C(F)(F)F)c(F)c2)c(Cl)c(N)c1Cl [Compound 58]
- Visual Growth Reduction (%) 14 Days After Application, CYPES ([1]; CYPES: yellow nutsedge (Cyperus esculentus), application rate 70 g ai/ha): A (95-100)
- Visual Growth Reduction (%) 14 Days After Application, CYPES ([1]; CYPES: yellow nutsedge (Cyperus esculentus), application rate 140 g ai/ha): A (95-100)
- Visual Growth Reduction (%) 14 Days After Application, DIGSA ([1]; DIGSA: crabgrass (Digitaria sanguinalis), application rate 70 g ai/ha): D (60-74)
- Visual Growth Reduction (%) 14 Days After Application, DIGSA ([1]; DIGSA: crabgrass (Digitaria sanguinalis), application rate 140 g ai/ha): C (75-84)
- Visual Growth Reduction (%) 14 Days After Application, ECHCG ([1]; ECHCG: barnyardgrass (Echinochloa crus-galli), application rate 70 g ai/ha): G (0-29)
- Visual Growth Reduction (%) 14 Days After Application, ECHCG ([1]; ECHCG: barnyardgrass (Echinochloa crus-galli), application rate 140 g ai/ha): C (75-84)
- Visual Growth Reduction (%) 14 Days After Application, ORYSA ([1]; ORYSA: rice (Oryza sativa), application rate 70 g ai/ha): G (0-29)
- Visual Growth Reduction (%) 14 Days After Application, ORYSA ([1]; ORYSA: rice (Oryza sativa), application rate 140 g ai/ha): G (0-29)
- Visual Growth Reduction (%) 14 Days After Application, SORVU ([1]; application rate 70 g ai/ha): E (45-59)
- Visual Growth Reduction (%) 14 Days After Application, SORVU ([1]; application rate 140 g ai/ha): E (45-59)
- Visual Growth Reduction (%) 14 Days After Application, TRZSS ([1]; application rate 70 g ai/ha): E (45-59)
- Visual Growth Reduction (%) 14 Days After Application, TRZSS ([1]; application rate 140 g ai/ha): D (60-74)
- Visual Growth Reduction (%) 14 Days After Application, ZEAMX ([1]; ZEAMX: maize, corn (Zea mays), application rate 70 g ai/ha): D (60-74)
- Visual Growth Reduction (%) 14 Days After Application, ZEAMX ([1]; ZEAMX: maize, corn (Zea mays), application rate 140 g ai/ha): D (60-74)
- Visual Growth Reduction (%) 14 Days After Application, ABUTH ([2]; ABUTH: velvetleaf (Abutilon theophrasti), 70 g ai/ha): B (85-94)
- Visual Growth Reduction (%) 14 Days After Application, ABUTH ([2]; ABUTH: velvetleaf (Abutilon theophrasti), 140 g ai/ha): A (95-100)
- Visual Growth Reduction (%) 14 Days After Application, AMARE ([2]; AMARE: redroot pigweed (Amaranthus retroflexus), 70 g ai/ha): B (85-94)
- Visual Growth Reduction (%) 14 Days After Application, AMARE ([2]; AMARE: redroot pigweed (Amaranthus retroflexus), 140 g ai/ha): A (95-100)
- Visual Growth Reduction (%) 14 Days After Application, BRSNN ([2]; BRSNN: oilseed-rape, canola (Brassica napus), 70 g ai/ha): D (60-74)
- Visual Growth Reduction (%) 14 Days After Application, BRSNN ([2]; BRSNN: oilseed-rape, canola (Brassica napus), 140 g ai/ha): C (75-84)
- Visual Growth Reduction (%) 14 Days After Application, CHEAL ([2]; CHEAL: lambsquarters (Chenopodium album), 70 g ai/ha): A (95-100)
- Visual Growth Reduction (%) 14 Days After Application, CHEAL ([2]; CHEAL: lambsquarters (Chenopodium album), 140 g ai/ha): A (95-100)
- Visual Growth Reduction (%) 14 Days After Application, EPHHL ([2]; EPHHL: wild poinsettia (Euphorbia heterophylla), 70 g ai/ha): G (0-29)
- Visual Growth Reduction (%) 14 Days After Application, EPHHL ([2]; EPHHL: wild poinsettia (Euphorbia heterophylla), 140 g ai/ha): G (0-29)
- Visual Growth Reduction (%) 14 Days After Application, HELAN ([2]; HELAN: sunflower (Helianthus annuus), 70 g ai/ha): A (95-100)
- Visual Growth Reduction (%) 14 Days After Application, HELAN ([2]; HELAN: sunflower (Helianthus annuus), 140 g ai/ha): A (95-100)
- Visual Growth Reduction (%) 14 Days After Application, VIOTR ([2]; VIOTR: wild pansy (Viola tricolor), 70 g ai/ha): G (0-29)
- Visual Growth Reduction (%) 14 Days After Application, VIOTR ([2]; VIOTR: wild pansy (Viola tricolor), 140 g ai/ha): G (0-29)
